In test [1] the target is T1, GST-tagged Tankyrase-1 (1023-1327 aa) (Homo sapiens, UniProt O95271).
T1 construct: GST-tagged Tankyrase-1 (1023-1327 aa)
Nature of the test: Tankyrase 1 autoparsylation assay (HTRF enzyme assay). The format is biochemical. As to the method:
Biochemical Activity Testing of Tankyrase 1 and 2: Autoparsylation Assay
The autoparsylation assay is run in two steps: the enzymatic reaction in which GST-tagged Tankyrase-1, resp Tankyrase-2 transferred biotinylated ADP-ribose to itself from biotinylated NAD as co-substrate and the detection reaction where a time resolved FRET between cryptate labelled anti-GST bound to the GST tag of the enzyme and Xlent® labelled-streptavidin bound the biotin-parsylation residue is analysed. The autoparsylation activity was detectable directly via the increase in HTRF signal.
The autoparsylation assay is performed as 384-well HTRF® (Cisbio, Codolet, France) assay format in Greiner low volume nb 384-well microtiter plates and is used for high throughput screen. 250 nM GST-tagged Tankyrase-1 (1023-1327 aa), respectively about 250 nM GST-tagged Tankyrase-2 (873-1166 aa) and 5 μM bio-NAD (Biolog, Life science Inst., Bremen, Germany) as co-substrate are incubated in a total volume of 5 μl (50 mM HEPES, 4 mM Mg-chloride, 0.05% Pluronic F-68, 1.4 mM DTT, 0.5% DMSO, pH 7.7) in the absence or presence of the test compound (10 dilution concentrations) for 90 min at 30° C. The reaction is stopped by the addition of 1 μl 50 mM EDTA solution. 2 μl of the detection solution (1.6 μM SA-Xlent® (Cisbio, Codolet, France), 7.4 nM Anti-GST-K® (Eu-labelled anti-GST, Cisbio, Codolet, France) in 50 mM HEPES, 800 mM KF, 0.1% BSA, 20 mM EDTA, 0.1% CHAPS, pH 7.0) are added. After 1 h incubation at room temperature the HTRF is measured with an Envision multimode reader (Perkin Elmer LAS Germany GmbH) at excitation wavelength 340 nm (laser mode) and emission wavelengths 615 nm and 665 nm. The ratio of the emission signals is determined. The full value used is the inhibitor-free reaction. The pharmacological zero value used is XAV-939 (Tocris) in a final concentration of 5 μM. The inhibitory values (IC50) are determined using either the program Symyx Assay Explorer® or Condosseo® from GeneData.

In test [2] the target is T2, GST-tagged Tnks-2 (873-1166 aa) (Homo sapiens, UniProt Q9H2K2).
T2 construct: GST-tagged Tnks-2 (873-1166 aa, prepared in-house); made in house
Briefly: TNKS2 activity ELISA (autoparsylation assay). It is filed as biochemical. On the procedure: Description of the TNKS1 and TNKS2 ELISA Assay
Biochemical Activity Testing of TNKS 1 and 2: Activity ELISA (Autoparsylation Assay)
For analysis of autoparsylation activity of TNKS 1 and 2 an activity ELISA is performed: In the first step GST tagged TNKS is captured on a Glutathione coated plate. Then the activity assay with biotinylated NAD is performed in the absence/presence of the compounds. During the enzymatic reaction GST tagged TNKS transfers biotinylated ADP-ribose to itself from biotinylated NAD as co-substrate. For the detection streptavidin-HRP conjugate is added that binds to the biotinylated TNKS and is thereby captured to the plates. The amount of biotinylated resp. autoparsylated TNKS is detected with a luminescence substrate for HRP. The level of the luminescence signal correlats directly with the amount of autoparsylated TNKS and therefore with activity of TNKS.
The activity ELISA is performed in 384 well Glutathione coated microtiter plates (Express capture Glutathione coated plate, Biocat, Heidelberg, Germany). The plates are pre-equilibrated with PBS. Then the plates are incubated with 50 μl 20 ng/well GST-tagged Tnks-1 (1023-1327 aa, prepared in-house), respectively GST-tagged Tnks-2 (873-1166 aa, prepared in-house) in assay buffer (50 mM HEPES, 4 mM Mg-chloride, 0.05% Pluronic F-68, 2 mM DTT, pH 7.7) overnight at 4° C. The plates are washed 3 times with PBS-Tween-20. The wells are blocked by incubation at room temperature for 20 minutes with 50 μl blocking buffer (PBS, 0.05% Tween-20, 0.5% BSA). Afterwards the plates are washed 3 times with PBS-Tween-20. The enzymatic reaction is performed in 50 μl reaction solution (50 mM HEPES, 4 mM Mg-chloride, 0.05% Pluronic F-68, 1.4 mM DTT, 0.5% DMSO, pH 7.7) with 10 μM bio-NAD (Biolog, Life science Inst., Bremen, Germany) as co-substrate in the absence or presence of the test compound (10 dilution concentrations) for 1 hour at 30° C. The reaction is stopped by 3 times washing with PBS-Tween-20. For the detection 50 μl of 20 ng/μl Streptavidin, HRP conjugate (MoBiTec, Göttingen, Germany) in PBS/0.05%Tween-20/0.01%BSA are added and the plates are incubated for 30 minutes at room temperature. After three times washing with PBS-Tween-20 50 μl of SuperSignal ELISA Femto Maximum sensitivity substrate solution (ThermoFisherScientific (Pierce), Bonn, Germany) are added. Following a 1 minute incubation at room temperature luminescence signals are measured with an Envision multimode reader (Perkin Elmer LAS Germany GmbH) at 700 nm. The full value used is the inhibitor-free reaction. The pharmacological zero value used is XAV-939 (Tocris) in a final concentration of 5 μM. The inhibitory values (IC50) are determined using either the program Symyx Assay Explorer® or Condosseo® from GeneData.
(In general: An ELISA detects its analyte on a solid surface through an enzyme-linked reagent.)

T1 sequence (O95271 1023-1327): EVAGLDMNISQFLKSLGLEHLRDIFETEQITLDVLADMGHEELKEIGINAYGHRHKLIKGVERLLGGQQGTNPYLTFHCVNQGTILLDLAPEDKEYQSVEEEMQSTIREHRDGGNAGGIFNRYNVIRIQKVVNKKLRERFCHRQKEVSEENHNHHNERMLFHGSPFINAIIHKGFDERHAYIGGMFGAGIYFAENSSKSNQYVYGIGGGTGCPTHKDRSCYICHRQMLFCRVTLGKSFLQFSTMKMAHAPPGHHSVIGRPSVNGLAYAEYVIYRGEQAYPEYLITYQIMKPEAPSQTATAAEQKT
T2 sequence (Q9H2K2 873-1166): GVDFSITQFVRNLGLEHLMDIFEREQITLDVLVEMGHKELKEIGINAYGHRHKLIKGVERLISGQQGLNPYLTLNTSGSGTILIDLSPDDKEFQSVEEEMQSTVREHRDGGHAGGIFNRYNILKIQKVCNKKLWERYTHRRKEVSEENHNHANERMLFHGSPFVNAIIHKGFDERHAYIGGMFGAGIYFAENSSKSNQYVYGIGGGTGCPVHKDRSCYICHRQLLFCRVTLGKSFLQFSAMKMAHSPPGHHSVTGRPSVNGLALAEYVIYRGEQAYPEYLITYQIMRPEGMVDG

As a reminder, the IC50 is the concentration at which inhibition is half-maximal. Low values mean greater potency in that assay, high ones weaker potency in that assay. Turning to `Cc1cc2c(=O)[nH]c(-c3ccc(-c4cnn(C)c4)cc3)nn2c1` [Compound A13, 6-methyl-2-[4-(1-methylpyrazol-4-yl)phenyl]-3H-pyrrolo-[2,1-f][1,2,4]triazin-4-one], the IC50 in test [1] and in test [2] was below 300 nM in each case.

Take `Cc1cc2c(=O)[nH]c(-c3ccc(C(C)(C)O)cc3)nn2c1` [Compound A11, 2-[4-(1-hydroxy-1-methyl-ethyl)phenyl]-6-methyl-3H-pyrrolo[2,1-f][1,2,4]triazin-4-one]: the IC50 in test [1] and in test [2] was below 300 nM throughout.

On to `CC(C)(OCCO)c1ccc(-c2nn3cccc3c(=O)[nH]2)cc1` [Compound A15, 2-{4-[1-(2-hydroxy-ethoxy)-1-methyl-ethyl]-phenyl}-3H-pyrrolo[2,1-f][1,2,4]triazin-4-one], for which the IC50 in test [1] and in test [2] was below 300 nM each time.

In the case of `CC(C)(O)c1ccc(-c2nn3cc(F)cc3c(=O)[nH]2)cc1` [Compound A12, 6-fluoro-2-[4-(1-hydroxy-1-methyl-ethyl)phenyl]-3H-pyrrolo[2,1-f][1,2,4]triazin-4-one], the IC50 in test [1] and in test [2] was below 300 nM in each case.

For the compound `Cn1cc(-c2ccc(-c3nn4cccc4c(=O)[nH]3)cc2)cn1` [Compound A7, 2-[4-(1-methyl-1H-pyrazol-4-yl)-phenyl]-3H-pyrrolo[2,1-f][1,2,4]triazin-4-one], the IC50 in test [1] and in test [2] was below 300 nM in each case.

As to `CC(C)(O)c1ccc(-c2nn3cccc3c(=O)[nH]2)cc1` [Compound A5, 2-[4-(1-hydroxy-1-methyl-ethyl)-phenyl]-3H-pyrrolo[2,1-f][1,2,4]triazin-4-one], the IC50 in test [1] and in test [2] was below 300 nM throughout.

Consider `CC(C)(O)c1ccc(-c2nn3cc(Cl)cc3c(=O)[nH]2)cc1` [Compound A18, 6-chloro-2-[4-(1-hydroxy-1-methyl-ethyl)-phenyl]-3H-pyrrolo[2,1-f][1,2,4]triazin-4-one], for which the IC50 in test [1] and in test [2] was below 300 nM throughout.

For `CCC(O)(CC)c1ccc(-c2nn3cccc3c(=O)[nH]2)cc1` [Compound A14, 2-[4-(1-ethyl-1-hydroxy-propyl)-phenyl]-3H-pyrrolo[2,1-f][1,2,4]triazin-4-one], the IC50 in test [1] and in test [2] was below 300 nM each time.

Take `O=c1[nH]c(-c2ccc(C3(O)CCCC3)cc2)nn2cccc12` [Compound A21, 2-[4-(1-hydroxy-cyclopentyl)-phenyl]-3H-pyrrolo[2,1-f][1,2,4]-triazin-4-one]: the IC50 in test [1] and in test [2] was below 300 nM each time.

The record behind these values is patent US9174995B2, “Pyrrolotriazinone derivatives” (Merck Patent GmbH, priority 2012, dated 2015).
